Experimental data reported in US12522596B2, “Compounds as GLP-1R agonists” (Terns Pharmaceuticals, Inc., priority 2021, dated 2026).

Tests used:
[1] = target: T1, human GLP-1R receptor (Homo sapiens, UniProt P43220); assay: GLP-1R low expression cell assay (cAMP TR-FRET, CHO-K1_hGLP-1Rlow_clone10); format: cell-based; conditions: CHO-K1_hGLP-1Rlow_clone10 cells
T1 construct: expressed in transfected cells
Procedure: Stable cell lines expressing high and low GLP-1R surface expression were generated in CHO-K1 cells transfected (Fugene 6) with a puromycin selectable DNA plasmid encoding human GLP-1R receptor (accession number: NM_002062.5) under control of an EF1A promoter. Transfected cells were seeded into 24-well plates (9,000 cells/well) containing complete medium and incubated in a humidified incubator at 37° C. with 5% carbon dioxide. After overnight incubation, medium was replaced with complete medium supplemented with puromycin (6 μg/mL) and refreshed every 2-3 days to select for stably transfected cells. Individual pools of selected cells were expanded prior to analysis for responsiveness to GLP-1 control peptide using a TR-FRET assay to detect cAMP (LANCE Ultra CAMP Assay, Perkin Elmer). Briefly, cells were collected in Versene solution, plated in 384-well plates (1,000 cells/well) and combined with serially diluted GLP-1R control peptide (10 nL) using an acoustic dispenser (ECHO). Plates were incubated for 30 minutes at 25° C. prior to the addition of EU-CAMP tracer (5 μL) and Ulight-anti-cAMP (5 μL) reagents to each well, followed by 15 minutes incubation at 25° C. TR-FRET signal was detected using an En Vision Multimode Plate Reader (excitation=320 nm; emission=615 and 655 nm). Dose-response curves were used to generate EC50 values as a measure of responsiveness to the GLP-1R control peptide. Selected cell lines were monitored for responsiveness over multiple passages to ensure stability. […] Briefly, GLP-1R expression was analyzed by flow cytometry using a fluorescein-labeled Exendin-4 peptide fluorescent probe (FLEX). Cells were harvested in Versene solution and washed 3-times with PBS+0.5% BSA before incubation with FLEX reagent (10 μM) for 2 hours at room temperature. After incubation, cells were washed 3-times in PBS+0.5% BSA before final resuspension in PBS prior to analysis by flow cytometry to measure FLEX mean fluorescence intensity (MFI) as a measure of GLP-1R expression on the cell surface.
For compound testing in the CHO-K1_hGLP-1Rlow_clone10 cell line, cells were seeded in 384-well plates (1,000 cells/well). Test compounds were serially diluted in DMSO (10-point, 3-fold dilution), added to wells using an ECHO dispenser (10 nL/well) and plates were centrifuged for 1 min and agitated for 2 min at room temperature prior to 30-minute incubation at 25° C. After incubation, Eu-CAMP (5 μL) and Ulight-anti-cAMP (5 μL) reagents were added to each well, followed by centrifugation for 1 minute, agitation for 2 minutes at room temperature, and final incubation of the plates at 25° C. for 15 minutes. Plates were read using an EnVision microplate reader (excitation=320 nm; emission=615 and 655 nm). Dose-response curves were generated from duplicate wells based on percent activation calculated relative to a control GLP-1 peptide agonist that was run in parallel. EC50 values were determined by fitting percent activation as a function of compound concentration using the Hill equation (XLfit).
Stable cell lines expressing high and low GLP-1R surface expression were generated in CHO-K1 cells transfected (Fugene 6) with a puromycin selectable DNA plasmid encoding human GLP-1R receptor (accession number: NM_002062.5) under control of an EF1A promoter. Transfected cells were seeded into 24-well plates (9,000 cells/well) containing complete medium and incubated in a humidified incubator at 37° C. with 5% carbon dioxide. After overnight incubation, medium was replaced with complete medium supplemented with puromycin (6 μg/mL) and refreshed every 2-3 days to select for stably transfected cells. Individual pools of selected cells were expanded prior to analysis for responsiveness to GLP-1 control peptide using a TR-FRET assay to detect cAMP (LANCE Ultra CAMP Assay, Perkin Elmer).

[2] = Rat pharmacokinetics, oral dosing; format: in vivo, Sprague-Dawley rats; conditions: for AUC(0-t) / Cmax / half-life: male, Sprague-Dawley, rat plasma
Procedure: Oral dosing: Compounds were formulated at 0.3 mg/mL or 0.6 mg/mL in a solution comprising 5% polyethylene glycol 400 and 95% (12% (w/v) sulfobutyl-β-cyclodextrin in water) (v/v). Formulated compounds were administered to male, 7-11 week old Sprague-Dawley rats by oral gavage at a dose of 3 mg/kg.
Sample collection: Blood collections of about 0.2 mL per time point were performed from jugular vein or other suitable site of each animal, into pre-chilled commercial EDTA-K2 tubes and placed on wet ice until centrifugation. Blood samples were processed for plasma by centrifugation at approximately 4° C., 3,200 g for 10 min. Plasma was collected and transferred into pre-labeled 96 well plate or polypropylene tubes, quick frozen over dry ice and kept at −60° C. or lower until LC-MS/MS analysis.
Data analysis: Plasma concentration versus time data was plotted in graph and analyzed by non-compartmental approaches using the Phoenix WinNonlin 6.3 software program. Related PK parameters were calculated according to dosing route, e.g., CL, Vdss and C0 for intravenous administration, Cmax, Tmax or % F for extravascular administration, and T1/2, AUC(0-t), AUC(0-inf), MRT(0-t), MRT(0-inf) for all routes.

[3] = rat, plasma, po, 3 mg/kg, 3 mg/kg PO (0.3 mg/mL)

T1 sequence (P43220 24-463): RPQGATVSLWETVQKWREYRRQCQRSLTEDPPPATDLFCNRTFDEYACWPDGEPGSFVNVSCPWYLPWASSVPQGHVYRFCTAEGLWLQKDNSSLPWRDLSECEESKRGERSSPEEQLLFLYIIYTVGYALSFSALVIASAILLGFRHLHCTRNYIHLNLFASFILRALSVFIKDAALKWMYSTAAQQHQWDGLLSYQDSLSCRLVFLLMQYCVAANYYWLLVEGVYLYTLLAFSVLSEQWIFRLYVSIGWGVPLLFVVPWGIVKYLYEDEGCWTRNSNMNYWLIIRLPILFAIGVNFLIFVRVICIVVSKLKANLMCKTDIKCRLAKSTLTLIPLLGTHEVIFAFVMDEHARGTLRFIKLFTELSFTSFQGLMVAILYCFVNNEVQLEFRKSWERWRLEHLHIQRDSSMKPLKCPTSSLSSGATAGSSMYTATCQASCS

CCc1ncsc1Cn1c(CN2CCC(c3cccc(OCc4nc5c(F)cc(C#N)cc5s4)n3)CC2)nc2ccc(C(=O)O)cc21 [Compound 8]
EC50 [1]: 360 nM

N#Cc1ccc(COc2ccnc([C@]34CCN(Cc5nc6ccc(C(=O)O)cc6n5Cc5cncs5)C[C@H]3C4)n2)c(F)c1 [Compound 18]
EC50 [1]: 9.9 nM

N#Cc1cc(F)c2nc(COc3cccc(C4CCN(Cc5nc6ccc(C(=O)O)cc6n5Cc5ccns5)CC4)n3)sc2c1 [Compound 9]
EC50 [1]: 16.6 nM

N#Cc1ccc(COc2cccc(C3CCN(Cc4nc5ccc(C(=O)O)cc5n4Cc4nccs4)CC3)n2)c(F)c1 [Compound 1]
EC50 [1]: 50.1 nM

Cc1scnc1Cn1c(CN2CCC(c3cccc(OCc4nc5c(F)cc(C#N)cc5s4)n3)CC2)nc2ccc(C(=O)O)cc21 [Compound 11]
EC50 [1]: 292 nM

N#Cc1cc(F)c2c(c1)CCN(c1cccc(C3CCN(Cc4nc5ccc(C(=O)O)cc5n4Cc4cncs4)CC3)n1)C2 [Compound 3]
EC50 [1]: 44.2 nM
AUC(0-t) [2, 3]: 116 ± 23.2 ng·h/mL
Cmax [2, 3]: 79.8 ± 24.4 ng/mL
half-life [2, 3]: 1.1 ± 0.29 h

O=C(O)c1ccc2nc(CN3CC[C@]4(c5nccc(OCc6ccc(Cl)cc6F)n5)C[C@@H]4C3)n(Cc3cncs3)c2c1 [Compound 21]
EC50 [1]: 6.6 nM

N#Cc1cc(F)c2nc(COc3cccc(C4CCN(Cc5nc6ccc(C(=O)O)cc6n5Cc5scnc5Br)CC4)n3)sc2c1 [Compound 6]
EC50 [1]: 135 nM

O=C(O)c1ccc2nc(CN3CC[C@@]4(c5cccc(OCc6ccc(Cl)cc6F)n5)C[C@H]4C3)n(Cc3cncs3)c2c1 [Compound 25]
EC50 [1]: 24.4 nM
Cmax ([2]; rat, plasma, po, 3 mg/kg, 3 mg/kg PO (0.6 mg/mL)): 412 ± 98.3 ng/mL
AUC(0-t) ([2]; 3 mg/kg PO (0.6 mg/mL)): 558 ± 100 ng·h/mL
half-life ([2]; 3 mg/kg PO (0.6 mg/mL)): 1.52 ± 0.21 h
PK properties relative to Reference Compound A ([2]; rat, dosed orally): similarly improved PK properties

C=Cc1ncsc1Cn1c(CN2CCC(c3cccc(OCc4nc5c(F)cc(C#N)cc5s4)n3)CC2)nc2ccc(C(=O)O)cc21 [Compound 7]
EC50 [1]: 90.6 nM

COc1ccsc1Cn1c(CN2CCC(c3cccc(OCc4nc5c(F)cc(C#N)cc5s4)n3)CC2)nc2ccc(C(=O)O)cc21 [Compound 10]
EC50 [1]: 393 nM

N#Cc1ccc(COc2cccc(C3CCN(Cc4nc5ccc(C(=O)O)cc5n4Cc4scnc4Cl)CC3)n2)c(F)c1 [Compound 15]
EC50 [1]: 25.8 nM

O=C(O)c1ccc2nc(CN3CC[C@@]4(c5nccc(OCc6ccc(Cl)cc6F)n5)C[C@H]4C3)n(Cc3cncs3)c2c1 [Compound 22]
EC50 [1]: 87.5 nM

O=C(O)c1ccc2nc(CN3CC[C@]4(c5cccc(OCc6ccc(Cl)cc6F)n5)C[C@@H]4C3)n(Cc3cncs3)c2c1 [Compound 24]
EC50 [1]: 15.1 nM

N#Cc1cc(F)c2nc(COc3cccc(C4CCN(Cc5nc6ccc(C(=O)O)cc6n5Cc5cncs5)CC4)n3)sc2c1 [Compound 5]
EC50 [1]: 5.4 nM

N#Cc1ccc(COc2ccnc([C@@]34CCN(Cc5nc6ccc(C(=O)O)cc6n5Cc5cncs5)C[C@@H]3C4)n2)c(F)c1 [Compound 19]
EC50 [1]: 161 nM
